# Assay results as given in patent US20230390274A1 (EPIRIUM BIO INC., priority 2020, published 2023).
# Like-named read-outs stand apart in the source and are kept apart here.
# Target: 15-PGDH/HPGD (Homo sapiens (Human), UniProt P15428)
# Experiment: hPGDH inhibitor screening biochemical assay
# Description: A hydroxyprostaglandin dehydrogenase inhibition screening biochemical assay can be performed to assess the synthesized inhibitors provided herein. Provided herein is an exemplary biochemical assay for hPGDH inhibitor screening.
# The in vitro biochemical assay can be performed in white, 384 plates in total 20 μl reaction volume consisting of 10 nM of 15-PGDH/HPGD (R&D System #5660-DH), 15 μM Prostaglandin E2 (Sigma, Cat #P5640-10MG) and 0.25 mM β-Nicotinamide adenine dinucleotide sodium salt (Sigma, Cat #N0632-5G) made in reaction buffer (50 mM Tris-HCl, pH 7.5, 0.01% Tween 20) at 10-point dose response curve for test/tool compounds. Briefly, 5 μl (4×) of compounds solution and 5 μl (final concentration, 10 nM) of enzyme solution is added to white 384 well plates and incubated for 10 mins at 37° C. 5 μl (4×) of Prostaglandin E2 and 5 μl (4×) of β-Nicotinamide adenine dinucleotide sodium salt is added to the wells and incubated for 10 mins at rt. Fluorescence is recorded at ex/em=340 nm/485 nm. The percentage (%) inhibition of enzyme activity was determined relative to […] (1% DMSO) and IC50 was calculated using GraphPad prism software (four parameter-variable slope equation).
# [1] = Table 1, PGDH inhibitors with a 6-5 ring core, read-out: hPGDH: IC50
# [2] = Table 2, PGDH inhibitors with a phenyl core, read-out: hPGDH: IC50
# [3] = 10 nM 15-PGDH/HPGD, 15 μM PGE2, 0.25 mM NAD, read-out: hPGDH: Average IC50
# Sequence of 15-PGDH/HPGD (P15428 whole entry): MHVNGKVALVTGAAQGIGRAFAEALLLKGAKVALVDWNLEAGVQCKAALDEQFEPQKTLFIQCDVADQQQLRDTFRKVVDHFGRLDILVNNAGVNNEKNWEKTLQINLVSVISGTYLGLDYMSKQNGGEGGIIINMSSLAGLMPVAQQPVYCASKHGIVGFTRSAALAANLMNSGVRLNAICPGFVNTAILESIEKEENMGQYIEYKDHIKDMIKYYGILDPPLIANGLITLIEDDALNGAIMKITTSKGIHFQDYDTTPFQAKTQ
Structure (SMILES),IC50 [3],other results
O=C(c1ccc2c(c1)ncn2-c1cccc(Cl)c1)N1CCC(F)C1 (stereo not drawn),–,IC50 [1]: 0.158 µM
O=C(c1ccc2c(c1)ncn2-c1cccc(Cl)c1)N1CCCC1,–,IC50 [1]: 0.274 µM
NC(=O)Cc1nc2cc(C(=O)N3CCCCC3)ccc2n1-c1cccc(Cl)c1,–,IC50 [1]: 0.576 µM
O=C(c1ccc2c(c1)ncn2-c1cccc(Cl)c1)N1CC2CC2C1 (stereo not drawn),–,IC50 [1]: 0.116 µM
COc1ccc(-n2c(C3CC3)nc3cc(C(=O)N4CCCCC4)ccc32)cc1,–,IC50 [1]: 0.197 µM
COc1cccc(C(=O)Nc2ccc(C(=O)N3CCCCC3)cc2)c1,–,IC50 [2]: 0.135 µM
O=C(Nc1ccc(C(=O)N2CCCCC2)cc1)c1ccccc1Cl,–,IC50 [2]: 0.277 µM
COc1ccccc1NC(=O)c1ccc(C(=O)N2CCCCC2)cc1,–,IC50 [2]: 0.593 µM
"N#Cc1ccc(-n2ccc3cc(C(=O)N4CC[C@H](F)C4)cnc32)cc1 (single isomer, unassigned) [A-340]",< 0.1 µM,–
"N#Cc1ccc(-n2ccc3cc(C(=O)N4CC[C@@H](F)C4)cnc32)cc1 (single isomer, unassigned) [A-341]",< 0.1 µM,–
O=C(c1ccc2c(c1)ncn2-c1cccc(Cl)c1)N1CC2CCCC2C1 (stereo not drawn) [A-1],< 0.1 µM,–
O=C(c1ccc2c(c1)ncn2-c1cccc(Cl)c1)N1CCC(F)(F)CC1 [A-8],< 0.1 µM,–
O=C(c1ccc2c(c1)ncn2-c1cccc(Cl)c1)N1CCC(F)(F)C1 [A-10],≥ 1 µM,–
O=C(c1ccc2c(c1)ncn2-c1cccc(Cl)c1)N1CCC(Cl)C1 (stereo not drawn) [A-12],< 0.1 µM,–
O=C(Nc1ccccc1)c1ccc2c(c1)ncn2-c1cccc(Cl)c1 [A-16],≥ 1 µM,–
"CN(C(=O)c1ccc2c(c1)ncn2-c1cccc(Cl)c1)C1CC1 [A-23, 1-(3-chlorophenyl)-N-cyclopropyl-N-methyl-1H-benzo[d]imidazole-5-carboxamide]",≥ 1 µM,–
CCOC(=O)c1nc2cc(C(=O)N3CCCCC3)ccc2n1-c1cccc(Cl)c1 [A-26],< 0.1 µM,–
CCOC(=O)Cc1nc2cc(C(=O)N3CCCCC3)ccc2n1-c1cccc(Cl)c1 [A-27],< 0.1 µM,–
Cc1nc2cc(C(=O)N3CCCCC3)ccc2n1-c1cccc(Cl)c1 [A-28],< 0.1 µM,–
CCOC(=O)CCc1nc2cc(C(=O)N3CCCCC3)ccc2n1-c1cccc(Cl)c1 [A-29],< 0.1 µM,–
O=C(O)CCc1nc2cc(C(=O)N3CCCCC3)ccc2n1-c1cccc(Cl)c1 [A-30],< 0.1 µM,–
NC(=O)CCc1nc2cc(C(=O)N3CCCCC3)ccc2n1-c1cccc(Cl)c1 [A-31],< 0.1 µM,–
"COc1ccc(-n2cnc3cc(C(=O)N4CCCCC4)ccc32)cc1Cl [A-36, (1-(3-chloro-4-methoxyphenyl)-1H-benzo[d]imidazol-5-yl)(piperidin-1-yl)methanone]",< 0.1 µM,–
O=C(c1ccc2c(c1)ncn2-c1ccc2c(c1)OCO2)N1CCCCC1 [A-37],< 0.1 µM,–
COc1ccc(-n2cnc3cc(C(=O)N4CCC(F)CC4)ccc32)nc1 [A-38],< 0.1 µM,–

# The next lines start with results.
IC50 [3],Structure (SMILES),other results
< 0.1 µM,O=C(c1ccc2c(c1)ncn2-c1cccc(Cl)c1)N1CCCCCC1 [A-2],–
< 0.1 µM,O=C(c1ccc2c(c1)ncn2-c1cccc(Cl)c1)N1CC2CCC(C2)C1 [A-4],–
< 0.1 µM,O=C(c1ccc2c(c1)ncn2-c1cccc(Cl)c1)N1CC2(CCC2)C1 [A-5],–
< 0.1 µM,O=C(c1ccc2c(c1)ncn2-c1cccc(Cl)c1)N1CCCCC1 [A-6],–
≥ 1 µM,O=C(c1ccc2c(c1)ncn2-c1cccc(Cl)c1)N1CCC(O)C1 (stereo not drawn) [A-13],–
< 0.1 µM,O=C(c1ccc2c(c1)ncn2-c1cccc(Cl)c1)N1CC(F)C1 [A-20],–
< 0.1 µM,O=C(c1ccc2c(c1)ncn2-c1cccc(Cl)c1)N1CC(Cl)C1 [A-21],–
≥ 1 µM,"O=C1CCN(C(=O)c2ccc3c(c2)ncn3-c2cccc(Cl)c2)C1 [A-24, 1-(1-(3-chlorophenyl)-1H-benzo[d]imidazole-5-carbonyl)pyrrolidin-3-one]",–
< 0.1 µM,COc1ccc(-n2cnc3cc(C(=O)N4CCCCC4)ccc32)cc1 [A-32],–
< 0.1 µM,COc1ccc(-n2cnc3cc(C(=O)N4CCC(F)CC4)ccc32)cc1 [A-33],–
< 0.1 µM,COc1ccc(-n2cnc3cc(C(=O)N4CCCCC4)ccc32)nc1 [A-35],–
